Data from paper PMC4335062, “Data-Driven Prediction and Design of bZIP Coiled-Coil Interactions” (PLoS Computational Biology, 2015).
pKd: −log10 of the molar value. Like-named read-outs stand apart in the source and are kept apart here. Where no end group is shown, it is not given here.

Assays:
Test in all cases: Direct-binding FRET assay
CREBZF = molecular target: T1, CREBZF (Homo sapiens, UniProt Q9NS37)
T1 construct: made in house
T1 sequence (Q9NS37 204-267 limits assumed): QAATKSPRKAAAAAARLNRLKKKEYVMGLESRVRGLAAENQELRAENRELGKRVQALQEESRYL
Description: (§1) The direct binding assay was performed manually in 384-well plates and is similar to a previously described assay. Wells were filled with 20 μL of 1 mM TCEP-HCl. A 4 μM stock of acceptor protein was made fresh in 1 mM TCEP-HCl, and 20 μL was titrated in 2-fold dilutions over the wells. […] The direct-binding FRET data were fit as previously described. Briefly, the Kd of the designed peptide homodimer was experimentally determined and used with previously determined target homodimer Kd values to determine the heterodimer Kd. The homodimer Kd values used for the human bZIPs were from; experiments done by […] et al. used the same protein constructs for the human bZIP proteins, the same buffer conditions, and the same assay. The fitting used a system of ordinary differential equations to describe the concentrations of homo and heterodimers formed by the donor (D) and acceptor (A) as a function of the heterodimer Kd. MATLAB was used to simulate the binding experiment for different Kd values, and the value that gave the best agreement between simulation and experiment was assigned. A minimum 15% change in the donor fluorescence upon titrating the acceptor peptide from 0 to 1000 nM was required for a fit to be attempted. If this minimum was not met, the interaction was classified as “NS” for no signal change. […] These interactions were marked “AS” to indicate anomalous signal. We attributed this to interactions between the peptides, the dyes and the walls of the assay plates at low concentrations. These curves could not be fit, given their unusual shapes at low concentrations of acceptor. For such curves, we removed the first five points and re-fit the data. […] One example of this is increasing concentrations of acceptor causing an increase in donor fluorescence.

BATF3 = molecular target: T2, BATF3 (Homo sapiens, UniProt Q9NR55); conditions: Kd, mean or single
T2 construct: made in house
T2 sequence (Q9NR55 35-98 limits assumed): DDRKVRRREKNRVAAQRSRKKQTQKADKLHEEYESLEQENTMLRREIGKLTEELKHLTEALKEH
Description: as §1

ATF2 = molecular target: T3, ATF2 (Homo sapiens, UniProt P15336); conditions: Kd, N-terminal rhodamine design, mean or single
T3 construct: made in house
T3 sequence (P15336 352-415 limits assumed): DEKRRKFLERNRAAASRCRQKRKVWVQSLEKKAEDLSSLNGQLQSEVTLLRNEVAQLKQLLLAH
Description: as §1

FOSL1 = molecular target: T4, FOSL1 (Homo sapiens, UniProt P15407)
T4 construct: made in house
T4 sequence (P15407 105-168 limits assumed): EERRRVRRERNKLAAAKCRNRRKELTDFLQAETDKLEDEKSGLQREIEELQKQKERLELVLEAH
Description: as §1

BATF = molecular target: T5, BATF (Homo sapiens, UniProt Q16520); conditions: Kd
T5 construct: made in house
T5 sequence (Q16520 26-89 limits assumed): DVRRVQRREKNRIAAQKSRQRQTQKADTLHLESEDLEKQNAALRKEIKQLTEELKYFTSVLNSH
Description: as §1

HLF = molecular target: T6, HLF (Homo sapiens, UniProt Q16534)
T6 construct: made in house
T6 sequence (Q16534 225-288 limits assumed): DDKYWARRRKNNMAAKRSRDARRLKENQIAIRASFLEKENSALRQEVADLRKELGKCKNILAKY
Description: as §1

CREB3L3 = molecular target: T7, CREB3L3 (Homo sapiens, UniProt Q68CJ9)
T7 construct: made in house
T7 sequence (Q68CJ9 243-306 limits assumed): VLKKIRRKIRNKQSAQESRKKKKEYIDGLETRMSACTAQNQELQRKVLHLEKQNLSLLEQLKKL
Description: as §1

ATF5 = molecular target: T8, ATF5 (Homo sapiens, UniProt Q9Y2D1); conditions: Kd
T8 construct: made in house
T8 sequence (Q9Y2D1 208-271 limits assumed): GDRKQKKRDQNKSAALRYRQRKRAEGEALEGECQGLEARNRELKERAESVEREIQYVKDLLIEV
Description: as §1

BATF2 = molecular target: T9, BATF2 (Homo sapiens, UniProt Q8N1L9); conditions: Kd
T9 construct: made in house
T9 sequence (Q8N1L9 17-80 limits assumed): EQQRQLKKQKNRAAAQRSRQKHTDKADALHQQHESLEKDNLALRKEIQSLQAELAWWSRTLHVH
Description: as §1

CREB3L1 = molecular target: T10, CREB3L1 (Homo sapiens, UniProt Q96BA8)
T10 construct: made in house
T10 sequence (Q96BA8 290-353 limits assumed): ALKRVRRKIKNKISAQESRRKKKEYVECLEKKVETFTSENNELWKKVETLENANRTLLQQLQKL
Description: as §1

[1] = 4°C, C-terminal fluorescein design as donor, TAMRA target titrated
[2] = 4°C, C-terminal rhodamine design, mean or single
[3] = 4°C, N-terminal rhodamine design, mean or single
[4] = 23°C, C-terminal fluorescein design as donor, TAMRA target titrated
[5] = 23°C, C-terminal rhodamine design, mean or single
[6] = 23°C, N-terminal rhodamine design, mean or single
[7] = 37°C, C-terminal fluorescein design as donor, TAMRA target titrated
[8] = 37°C, N-terminal rhodamine design, mean or single
[9] = 37°C, C-terminal rhodamine design, mean or single

Sequence: SIAATLEKEEANLEKMNKKLAAEIESLLKEKDKLESVLNYHE [JUN-d1]
- pKd (CREBZF): < 6.00
- pKd (CREBZF; [1]): < 6.00
- pKd (CREBZF; [2]): < 6.00
- pKd (CREBZF; [3]): < 6.00
- pKd (CREBZF; [4]): < 6.00
- pKd (CREBZF; [5]): < 6.00
- pKd (CREBZF; [6]): < 6.00
- pKd (CREBZF; [7]): < 6.00
- pKd (CREBZF; [8]): < 6.00
- pKd (BATF3; 4°C, C-terminal rhodamine design): 6.44
- pKd (BATF3; 4°C, N-terminal rhodamine design): < 6.00
- pKd (BATF3; 23°C, C-terminal rhodamine design): < 5.30
- pKd (BATF3; 23°C, N-terminal rhodamine design): < 6.00
- pKd (BATF3; 37°C, C-terminal rhodamine design): < 6.00
- pKd (BATF3; 37°C, N-terminal rhodamine design): < 6.00
- pKd (ATF2; 4°C): 6.00 to 6.70
- pKd (ATF2; 23°C): < 6.00
- pKd (ATF2; 37°C): < 6.00
- pKd (FOSL1): < 6.00
- pKd (FOSL1; [2]): < 6.00
- pKd (FOSL1; [3]): < 6.00
- pKd (FOSL1; [5]): < 6.00
- pKd (FOSL1; [6]): < 6.00
- pKd (FOSL1; [8]): < 6.00
- pKd (BATF; [1]): < 6.00
- pKd (BATF; [2]): 6.00 to 6.70
- pKd (BATF; [3]): < 6.00
- pKd (BATF; [4]): < 6.00
- pKd (BATF; [5]): < 6.00
- pKd (BATF; [6]): < 6.00
- pKd (BATF; [7]): < 6.00
- pKd (BATF; [9]): < 6.00
- pKd (BATF; [8]): < 6.00
- pKd (HLF): < 6.00
- pKd (HLF; [1]): < 6.00
- pKd (HLF; [2]): < 6.00
- pKd (HLF; [3]): < 6.00
- pKd (HLF; [4]): < 6.00
- pKd (HLF; [5]): < 6.00
- pKd (HLF; [6]): < 6.00
- pKd (HLF; [7]): < 6.00
- pKd (HLF; [8]): < 6.00
- pKd (CREB3L3): < 6.00
- pKd (CREB3L3; [1]): < 6.00
- pKd (CREB3L3; [2]): < 6.00
- pKd (CREB3L3; [3]): < 6.00
- pKd (CREB3L3; [4]): < 6.00
- pKd (CREB3L3; [5]): < 6.00
- pKd (CREB3L3; [6]): < 6.00
- pKd (CREB3L3; [7]): < 6.00
- pKd (CREB3L3; [8]): < 6.00
- pKd (ATF5; [1]): < 6.00
- pKd (ATF5; [2]): < 5.30
- pKd (ATF5; [3]): < 6.00
- pKd (ATF5; [4]): < 6.00
- pKd (ATF5; [5]): < 6.00
- pKd (ATF5; [6]): < 6.00
- pKd (ATF5; [7]): < 6.00
- pKd (ATF5; [9]): < 6.00
- pKd (ATF5; [8]): < 6.00
- pKd (BATF2; [1]): < 6.00
- pKd (BATF2; [2]): < 5.30
- pKd (BATF2; [3]): < 6.00
- pKd (BATF2; [4]): < 6.00
- pKd (BATF2; [5]): < 6.00
- pKd (BATF2; [6]): < 6.00
- pKd (BATF2; [7]): < 6.00
- pKd (BATF2; [9]): < 6.00
- pKd (BATF2; [8]): < 6.00
- pKd (CREB3L1): < 6.00
- pKd (CREB3L1; [2]): < 6.00
- pKd (CREB3L1; [3]): < 6.00
- pKd (CREB3L1; [5]): < 6.00
- pKd (CREB3L1; [6]): < 6.00
- pKd (CREB3L1; [8]): < 6.00
